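Where inhibition never reached the appropriate level, the endpoint shown equals the highest concentration tested. Otherwise, values were interpolated linearly from a five-concentration, 48-hour dose response in 96-well plates. Here, GI50 denotes the concentration required for 50% inhibition of growth. TGI marks complete inhibition of growth.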 Where a SMILES comes first, the peptide text is derived from it. [ ]: non-standard residue; d: D form. ξ: configuration not given here. ξ2Thi = NC(Cc1cccs1)C(=O)O; ξR = N=C(N)NCCCC(N)C(=O)O; ξI = CCC(C)C(N)C(=O)O; ξL = CC(C)CC(N)C(=O)O; ξK = NCCCCC(N)C(=O)O; ξT = CC(O)C(N)C(=O)O; ξA = CC(N)C(=O)O
Experiments:
Experiment in all cases: NCI-60 cell line screen, 48 h
UACC-257 melanoma = test system: UACC-257 melanoma
BT-549 breast = test system: BT-549 breast
NCI-H23 lung = test system: NCI-H23 lung
NCI-H226 lung = test system: NCI-H226 lung
TK-10 renal = test system: TK-10 renal
SN12C renal = test system: SN12C renal
SK-OV-3 ovarian = test system: SK-OV-3 ovarian
A549 NSCLC = test system: A549 NSCLC
RXF 393 renal = test system: RXF 393 renal
SF-295 CNS = test system: SF-295 CNS
HOP-62 NSCLC = test system: HOP-62 NSCLC
MOLT-4 leukemia = test system: MOLT-4 leukemia
OVCAR-5 ovarian = test system: OVCAR-5 ovarian
HCT-116 colon = test system: HCT-116 colon
SK-MEL-28 melanoma = test system: SK-MEL-28 melanoma
NCI-H522 lung = test system: NCI-H522 lung
SF-268 CNS = test system: SF-268 CNS
NCI/ADR-RES ovarian = test system: NCI/ADR-RES ovarian
DU-145 prostate = test system: DU-145 prostate
UO-31 renal = test system: UO-31 renal
T-47D breast = test system: T-47D breast
SW-620 colon = test system: SW-620 colon
SK-MEL-2 melanoma = test system: SK-MEL-2 melanoma
COLO 205 colon = test system: COLO 205 colon
A498 renal = test system: A498 renal
NCI-H460 lung = test system: NCI-H460 lung
MCF7 breast = test system: MCF7 breast
OVCAR-4 ovarian = test system: OVCAR-4 ovarian
SNB-75 CNS = test system: SNB-75 CNS
IGROV1 ovarian = test system: IGROV1 ovarian
M14 melanoma = test system: M14 melanoma
MDA-MB-435 = test system: MDA-MB-435
OVCAR-3 ovarian = test system: OVCAR-3 ovarian
OVCAR-8 ovarian = test system: OVCAR-8 ovarian
786-0 renal = test system: 786-0 renal
SF-539 CNS = test system: SF-539 CNS
ACHN renal = test system: ACHN renal
HL-60(TB) leukemia = test system: HL-60(TB) leukemia
HCT-15 colon = test system: HCT-15 colon
HS 578T breast = test system: HS 578T breast
K-562 leukemia = test system: K-562 leukemia
CCRF-CEM leukemia = test system: CCRF-CEM leukemia
PC-3 prostate = test system: PC-3 prostate
HOP-92 NSCLC = test system: HOP-92 NSCLC
HCC-2998 colon = test system: HCC-2998 colon
U251 CNS = test system: U251 CNS
KM12 colon = test system: KM12 colon
SK-MEL-5 melanoma = test system: SK-MEL-5 melanoma
CAKI-1 renal = test system: CAKI-1 renal
HT29 colon = test system: HT29 colon
MALME-3M melanoma = test system: MALME-3M melanoma
SNB-19 CNS = test system: SNB-19 CNS
EKVX NSCLC = test system: EKVX NSCLC
LOX IMVI melanoma = test system: LOX IMVI melanoma
MDA-MB-231 breast = test system: MDA-MB-231 breast
RPMI-8226 leukemia = test system: RPMI-8226 leukemia
UACC-62 melanoma = test system: UACC-62 melanoma

CCC(C)C(NC(=O)C(Cc1cccs1)NC(=O)C(CC(C)C)NC(=O)C(CC(C)C)NC(=O)C(CCCCN)NC(=O)C(CCCN=C(N)N)NC(=O)[C@H](Cc1ccc(O)cc1)NC(=O)C(NC(=O)C(C)NC(=O)C(N)CC(C)C)C(C)O)C(=O)NC(CC(C)C)C(N)=O (stereo not given in full) (H-[ξL][ξA][ξT]Y[ξR][ξK][ξL][ξL][ξ2Thi][ξI][ξL]-NH2)
TGI (UACC-257 melanoma): > 50 µM
TGI (BT-549 breast): > 50 µM
TGI (NCI-H23 lung): > 50 µM
TGI (NCI-H226 lung): > 50 µM

COc1ccc(Oc2cccc(/C=C3/C(=O)Nc4ccccc43)c2)cc1
TGI (TK-10 renal): 29.9 µM
TGI (UACC-257 melanoma): 27.8 µM
TGI (SN12C renal): 22.8 µM
TGI (SK-OV-3 ovarian): 31 µM
TGI (A549 NSCLC): > 100 µM
TGI (RXF 393 renal): 15.7 µM
TGI (SF-295 CNS): 19.9 µM
TGI (HOP-62 NSCLC): 28 µM
TGI (MOLT-4 leukemia): 13 µM
TGI (OVCAR-5 ovarian): 31.5 µM
TGI (HCT-116 colon): 15.2 µM
TGI (SK-MEL-28 melanoma): 23.6 µM
TGI (NCI-H522 lung): 19.6 µM
TGI (SF-268 CNS): 24.1 µM
TGI (BT-549 breast): 29.5 µM
TGI (NCI/ADR-RES ovarian): 17.8 µM
TGI (DU-145 prostate): 27.1 µM
TGI (UO-31 renal): 20 µM
TGI (T-47D breast): 9.75 µM
TGI (SW-620 colon): 23.2 µM
TGI (SK-MEL-2 melanoma): 23 µM
TGI (COLO 205 colon): 14 µM
TGI (A498 renal): 25.4 µM
TGI (NCI-H460 lung): 25 µM
TGI (MCF7 breast): 12.8 µM
TGI (OVCAR-4 ovarian): 27 µM
TGI (SNB-75 CNS): 28.3 µM
TGI (IGROV1 ovarian): 20.9 µM
TGI (M14 melanoma): 24.3 µM
TGI (MDA-MB-435): 13.8 µM
TGI (OVCAR-3 ovarian): 21.6 µM
TGI (OVCAR-8 ovarian): > 100 µM
TGI (786-0 renal): 24.1 µM
TGI (NCI-H23 lung): 16.2 µM
TGI (SF-539 CNS): 33.1 µM
TGI (ACHN renal): 23.8 µM
TGI (HL-60(TB) leukemia): 12.5 µM
TGI (HCT-15 colon): 21.8 µM
TGI (HS 578T breast): 45.8 µM
TGI (K-562 leukemia): 7.63 µM
TGI (CCRF-CEM leukemia): 22.1 µM
TGI (PC-3 prostate): 18.8 µM
TGI (HOP-92 NSCLC): 14.3 µM
TGI (HCC-2998 colon): 21.3 µM
TGI (U251 CNS): 14.2 µM
TGI (KM12 colon): 18 µM
TGI (SK-MEL-5 melanoma): 11.3 µM
TGI (CAKI-1 renal): 20.9 µM
TGI (HT29 colon): 12.9 µM
TGI (MALME-3M melanoma): 24.2 µM
TGI (SNB-19 CNS): 19.1 µM
TGI (EKVX NSCLC): 25.1 µM

Nc1ccc2c(c1)C(=O)C(=O)c1c-2nc2ccccn12
GI50 (TK-10 renal): 15.3 µM
TGI (TK-10 renal): 29.3 µM
GI50 (UACC-257 melanoma): 1080 nM
TGI (UACC-257 melanoma): 2.28 µM
GI50 (SN12C renal): 1080 nM
TGI (SN12C renal): 2.48 µM
GI50 (SK-OV-3 ovarian): 2640 nM
TGI (SK-OV-3 ovarian): 7.62 µM
GI50 (A549 NSCLC): 1620 nM
TGI (A549 NSCLC): 3.54 µM
GI50 (RXF 393 renal): 1600 nM
TGI (RXF 393 renal): 2.99 µM
GI50 (SF-295 CNS): 1530 nM
TGI (SF-295 CNS): 2.89 µM
GI50 (LOX IMVI melanoma): 327 nM
TGI (LOX IMVI melanoma): 1330 nM
GI50 (MOLT-4 leukemia): 1960 nM
TGI (MOLT-4 leukemia): 4.88 µM
GI50 (MDA-MB-231 breast): 1750 nM
TGI (MDA-MB-231 breast): 4.96 µM
GI50 (OVCAR-5 ovarian): 1920 nM
TGI (OVCAR-5 ovarian): 3.57 µM
GI50 (HCT-116 colon): 1040 nM
TGI (HCT-116 colon): 2.29 µM
GI50 (SK-MEL-28 melanoma): 1260 nM
TGI (SK-MEL-28 melanoma): 2.64 µM
GI50 (RPMI-8226 leukemia): 1800 nM
TGI (RPMI-8226 leukemia): 4.71 µM
GI50 (BT-549 breast): 1490 nM
TGI (BT-549 breast): 2.82 µM
GI50 (NCI/ADR-RES ovarian): 1850 nM
TGI (NCI/ADR-RES ovarian): 5.98 µM
GI50 (DU-145 prostate): 556 nM
TGI (DU-145 prostate): 1.79 µM
GI50 (UO-31 renal): 1280 nM
TGI (UO-31 renal): 2.64 µM
GI50 (T-47D breast): 1760 nM
TGI (T-47D breast): 4.13 µM
GI50 (SW-620 colon): 1800 nM
TGI (SW-620 colon): 3.83 µM
GI50 (SK-MEL-2 melanoma): 1680 nM
TGI (SK-MEL-2 melanoma): 3.7 µM
GI50 (COLO 205 colon): 10.8 µM
TGI (COLO 205 colon): 26.6 µM
GI50 (A498 renal): 1570 nM
TGI (A498 renal): 3.37 µM
GI50 (NCI-H460 lung): 561 nM
TGI (NCI-H460 lung): 3.12 µM
GI50 (MCF7 breast): 1060 nM
TGI (MCF7 breast): 3.07 µM
GI50 (UACC-62 melanoma): 266 nM
TGI (UACC-62 melanoma): 782 nM
GI50 (OVCAR-4 ovarian): 1230 nM
TGI (OVCAR-4 ovarian): 2.49 µM
GI50 (SNB-75 CNS): 1040 nM
TGI (SNB-75 CNS): 2.28 µM
GI50 (IGROV1 ovarian): 1520 nM
TGI (IGROV1 ovarian): 3.55 µM
GI50 (M14 melanoma): 281 nM
TGI (M14 melanoma): 0.741 µM
GI50 (MDA-MB-435): 186 nM
TGI (MDA-MB-435): 0.352 µM
GI50 (OVCAR-3 ovarian): 1260 nM
TGI (OVCAR-3 ovarian): 3.07 µM
GI50 (OVCAR-8 ovarian): 1290 nM
TGI (OVCAR-8 ovarian): 3.23 µM
GI50 (786-0 renal): 2240 nM
TGI (786-0 renal): 4.86 µM
GI50 (NCI-H23 lung): 576 nM
TGI (NCI-H23 lung): 3.05 µM
GI50 (SF-539 CNS): 1660 nM
TGI (SF-539 CNS): 3.03 µM
GI50 (ACHN renal): 1220 nM
TGI (ACHN renal): 2.46 µM
GI50 (HL-60(TB) leukemia): 1960 nM
TGI (HL-60(TB) leukemia): 5.46 µM
GI50 (HCT-15 colon): 427 nM
TGI (HCT-15 colon): 1.87 µM
GI50 (K-562 leukemia): 1090 nM
TGI (K-562 leukemia): 3.88 µM
GI50 (CCRF-CEM leukemia): 1770 nM
TGI (CCRF-CEM leukemia): 5.27 µM
GI50 (PC-3 prostate): 1780 nM
TGI (PC-3 prostate): 10.5 µM
GI50 (HOP-92 NSCLC): 2000 nM
TGI (HOP-92 NSCLC): 4.21 µM
GI50 (NCI-H226 lung): 1720 nM
TGI (NCI-H226 lung): 3.75 µM
GI50 (HCC-2998 colon): 2220 nM
TGI (HCC-2998 colon): 4.09 µM
GI50 (U251 CNS): 1280 nM
TGI (U251 CNS): 2.58 µM
GI50 (KM12 colon): 2130 nM
TGI (KM12 colon): 6.8 µM
GI50 (SK-MEL-5 melanoma): 178 nM
TGI (SK-MEL-5 melanoma): 0.329 µM
GI50 (HT29 colon): 3.97 µM
TGI (HT29 colon): 34.9 µM
GI50 (MALME-3M melanoma): 271 nM
TGI (MALME-3M melanoma): 0.572 µM
GI50 (SNB-19 CNS): 1640 nM
TGI (SNB-19 CNS): 3.23 µM
GI50 (EKVX NSCLC): 2040 nM
TGI (EKVX NSCLC): 4.52 µM
